Data on 29 molecules can be found in patent US20230381142A1, “ANTILEISHMANIAL COMPOUNDS, COMPOSITIONS AND USE THEREOF” (TRUSTEES OF BOSTON UNIVERSITY, priority 2022, published 2023).

Molecules are shown by their SMILES. pEC50: −log10 of the molar value. Read-outs that look alike come from different tables or passages of the source. Bounds are passed on as bounds.

In data set [1] the test system is host THP-1 macrophages. The data set is described as follows: GSK inMac assay, host cell toxicity readout (LD MAC). It counts as cell-based, human. The following applies: for THP-1 Host Cell CC50: host THP-1 cells. The procedure, abridged:
(§1)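 MAC EC50 reflects THP-1 host cell counts, measured within GSK's inMac L. donovani infection assay that also scores intracellular amastigotes and infected-cell percentage.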

In data set [2] the test system is L. donovani intracellular amastigotes in B10R cells. Put plainly: UCSD L. donovani infection assay (Assay Conditions D). The following applies: B10R cells; for L. donovani amastigotes EC75 (B10R cells): footnote d; for pEC50: Leishmania donovani, values marked d, read-out: L. donovani amastigotes EC50 (B10R cells). It is filed as cell-based. The protocol: (§2) Assay Conditions D: B10R cells (CVCL_0155) were seeded at 300 cells/well, and L. donovani WT promastigotes in stationary phase (7th day after passage) were added at 6,000 parasites/well (ratio of 20 parasites/cell). Both cells and parasites were seeded in DMEM High-Glucose medium (Gibco, cat. no. 11995065) containing 5% Fetal Bovine Serum (Sigma-Aldrich, cat. no. F2442) and 1% Penicillin-Streptomycin (Gibco, cat. no. 15140122). Cells and parasites were incubated in the presence of the compounds for 72 h at 37° C. and 5% C02. Plates were then fixed with 4% formaldehyde solution for at least 1 h, then washed with 1×PBS and stained with 5 μg/mL DAPI. Plates were read using an ImageXpress microscope (Molecular Devices) and analyzed by MetaXpress software (Molecular Devices) using a custom module optimized for this assay. […] Compounds were tested in a 10-point 2-fold serial dilution in 3 technical replicates, and 2 biological replicates. After 72 h, plates were fixed and stained with DAPI as described above. Images were acquired on an ImageXpress microscope, and analyzed using the MetaXpress custom module.
as §2, with “Compounds were obtained as 0.2 μmoles of dried film for primary single point screening. Each compound was diluted in DMSO to 10 μM final testing concentration. These compounds were tested in 2 biological replicates. The compounds were pre-spotted onto 384-well assay plates in single concentration.” for “Assay Conditions D:”, “CO2.” for “C02.”, “module. The DRCs were plotted, half-effective concentration (EC50) and half-cytotoxic concentration (CC50) were calculated using GraphPad Prism Software, version 6.05 (GraphPad Software, San Diego, CA).” for “module.”

The test system of data set [3] is L. donovani intracellular amastigotes infecting THP-1 macrophages. Put plainly: GSK intramacrophage L. donovani assay (LD AMMAC, inMac; Assay Conditions C). The following applies: Leishmania donovani; for EC50: values marked c: THP-1 cells, read-out: L. donovani amastigotes EC50 (μM, THP-1 or B10R cells). It is filed as cell-based. The procedure, abridged: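 EC50 values come from counting amastigotes per infected THP-1 macrophage (AMMAC). Parallel read-outs give percentage of infected cells per well (INFCELL) and a macrophage-number toxicity EC50 (MAC).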

Data set [4] can be described thus: GSK inMac assay, host cell toxicity readout (LD MAC). It is filed as cell-based, human. The following applies: human. A digest of the protocol:
as §1

Data set [5] in a line: Property forecast index (PFI = ChromLogD7.4 + aromatic rings). It counts as physicochemical. The procedure:
At the outset of the project, compound 1 was evaluated against GSK's established criteria for antileishmanial compound advancement (Table 2). Some of these assessments were performed on racemic 1, while chiral separation was also pursued of the 1 racemate to determine the active enantiomer. […] Based on this promising profile, it progressed into medicinal chemistry optimization to better understand structure-activity relationships (SAR) toward improved potency, as well as structure-property relationships (SPR) with an eye toward reducing PFI and plasma protein binding.

The mark [6] stands for this setting: THP-1 cells, values marked c, read-out: L. donovani amastigotes EC50 (THP-1 cells).
The mark [7] stands for this setting: footnote c, read-out: THP-1 Host Cell CC50.

Take `CCn1cc(N2C(=O)c3[nH]nc(CC(C)C)c3C2c2ccccc2C(F)(F)F)cn1` (stereo not shown) [BUCMD00671]: in data set [1], the “THP-1 Host Cell CC50” value is over 10 µM. For the same molecule, the “L. donovani amastigotes EC75 (μM, B10R cells)” value in data set [2] was over 5 µM.

For the molecule `CC(C)Cc1n[nH]c2c1C(c1ccc(F)c(F)c1)N(c1cncc(F)c1)C2=O` (stereo not shown) [BUCMD00701], the “THP-1 Host Cell CC50” value in data set [1] is over 10 µM. In addition, the “L. donovani amastigotes EC75 (μM, B10R cells)” value in data set [2] is over 5 µM.

In the case of `CC(C)Cc1n[nH]c2c1C(c1ccc(F)cc1)N(c1ccc3ncnn3c1)C2=O` (stereo not shown) [CMLD010888], in data set [3] (setting [6]), the pEC50 was 5.30. For the same molecule, the CC50 in data set [4] (setting [7]) is over 50 µM. Moreover, the “L. donovani amastigotes EC75 (B10R cells)” value in data set [2] turned out to be 2.3 µM.

With `CC(C)Cc1n[nH]c2c1C(c1ccccc1Cl)N(c1ccc3ncnn3c1)C2=O` (stereo not shown) [CMLD010921], the CC50 in data set [4] (setting [7]) was over 20 µM. Besides, in data set [2], the “L. donovani amastigotes EC75 (B10R cells)” value was 0.6 µM and the pEC50 is 6.22.

On to `C#CCn1nc2c(c1CC(C)C)C(c1ccc(F)cc1)N(c1ccc(OC)cc1)C2=O` (stereo not shown) [CMLD010986], for which, in data set [3], the EC50 is 3.2 µM. Also, half-maximal cytotoxicity in data set [4] (host THP-1 cells) (CC50) was put at 25.1 µM. The “L. donovani amastigotes EC75 (μM, B10R cells)” value in data set [2] was over 10 µM.

Consider `C#CCn1nc(CC(C)C)c2c1C(=O)N(c1ccc(OC)cc1)C2c1ccc(F)cc1` (stereo not shown) [CMLD010987], for which, in data set [3] (setting [6]), the pEC50 was 5.80. In addition, in data set [4] (setting [7]), the CC50 was 20 µM. Moreover, the “L. donovani amastigotes EC75 (B10R cells)” value in data set [2] came out at 4.0 µM.

On to `CC(C)Cc1n[nH]c2c1C(c1ccc(F)cc1)N(CCN1CCCC1)C2=O` (stereo not shown) [CMLD011072], for which the pEC50 in data set [3] (setting [6]) was 4.80. Besides, in data set [4] (setting [7]), the CC50 was over 50 µM. Moreover, the “L. donovani amastigotes EC75 (B10R cells)” value in data set [2] was over 10 µM.

`CC(C)Cc1n[nH]c2c1C(c1ccsc1)N(c1ccc3c(c1)OCO3)C2=O` (stereo not shown) [CMLD011136]: the EC50 in data set [3] is 5 µM. The molecule further yielded a CC50 in data set [4] (host THP-1 cells) of at least 50.1 µM. Besides, the “L. donovani amastigotes EC75 (μM, B10R cells)” value in data set [2] amounted to 3.6 µM.

For `CC(C)Cc1n[nH]c2c1C(c1ccc(F)cc1)N(c1ccccc1N(C)C)C2=O` (stereo not shown) [CMLD011499], the pEC50 in data set [3] (setting [6]) was 5.49. Also, in data set [4] (setting [7]), the CC50 is 10 µM.

Regarding `COc1ccccc1C1c2c(CC(C)C)n[nH]c2C(=O)N1c1ccc2c(c1)OCO2` (stereo not shown) [CMLD011546], the CC50 in data set [4] (setting [7]) is over 20 µM. Moreover, in data set [2], the “L. donovani amastigotes EC75 (B10R cells)” value was determined as 0.3 µM and the pEC50 was 6.52.

Take `CC(C)Cc1n[nH]c2c1C(c1c(Cl)cccc1Cl)N(c1ccc3c(c1)OCO3)C2=O` (stereo not shown) [CMLD011547]: the pEC50 in data set [3] (setting [6]) is 5.60. The CC50 in data set [4] (setting [7]) stood at 20 µM.

As to `CC(C)Cc1n[nH]c2c1C(c1c(Cl)cccc1Cl)N(c1ccc(Br)cc1)C2=O` (stereo not shown) [CMLD011550], in data set [3] (setting [6]), the pEC50 is 5.10. In addition, in data set [4] (setting [7]), the CC50 stood at 20 µM.

As to `COc1ncc(N2C(=O)c3[nH]nc(CC(C)C)c3C2c2ccc(F)cc2)cc1C` (stereo not shown) [CMLD011555], in data set [3], the EC50 worked out at 10 µM. This molecule also displayed a CC50 in data set [4] (host THP-1 cells) of 20 µM. In addition, the “L. donovani amastigotes EC75 (μM, B10R cells)” value in data set [2] amounted to 1.7 µM.

With `CC(C)Cc1n[nH]c2c1C(c1ccc(F)cc1)N(c1ccc3[nH]c(O)nc3c1)C2=O` (stereo not shown) [CMLD011556], the pEC50 in data set [3] (setting [6]) was under 4.00. Moreover, in data set [4] (setting [7]), the CC50 stood at 20 µM.

With `CC(C)Cc1n[nH]c2c1C(c1ccc(F)cc1)N(c1ccc3[nH]cnc3c1)C2=O` (stereo not shown) [CMLD011557], in data set [3] (setting [6]), the pEC50 was under 4.00. For the same molecule, the CC50 in data set [4] (setting [7]) came to 20 µM.

Turning to `CC(C)Cc1n[nH]c2c1C(c1ccc(F)cc1)N(c1ccc(S(=O)(=O)N3CCCC3)cc1)C2=O` (stereo not shown) [CMLD011558], the pEC50 in data set [3] (setting [6]) is under 4.00. In addition, the CC50 in data set [4] (setting [7]) was 20 µM.

`COc1ccc(N2C(=O)c3[nH]nc(CC(C)C)c3C2c2cccnc2Cl)cc1` (stereo not shown) [CMLD011559]: in data set [3] (setting [6]), the pEC50 is under 4.00. Moreover, the CC50 in data set [4] (setting [7]) worked out at 20 µM.

In the case of `CC(C)Cc1n[nH]c2c1C(c1ccc(F)cc1)N(c1ccc(N3CCCC3=O)cc1)C2=O` (stereo not shown) [CMLD011560], the EC50 in data set [3] came to 4 µM. In data set [4] (host THP-1 cells), this molecule showed a CC50 of 20 µM. The “L. donovani amastigotes EC75 (μM, B10R cells)” value in data set [2] came out at 1.0 µM.

For the molecule `COc1ccc(N2C(=O)c3[nH]nc(CC(C)C)c3C2c2c(Cl)cccc2Cl)cc1F` (stereo not shown) [CMLD011568], in data set [3] (setting [6]), the pEC50 was 5.20. In addition, the cytotoxic concentration (CC50) in data set [4] (setting [7]) stood at 20 µM.

`COc1ccc(N2C(=O)c3[nH]nc(CC(C)C)c3C2c2c(Cl)cccc2Cl)cn1` (stereo not shown) [CMLD011569]: the pEC50 in data set [3] (setting [6]) was 5.30. The CC50 in data set [4] (setting [7]) was 20 µM.

On to `COc1ccc(N2C(=O)c3[nH]nc(CC(C)C)c3C2c2ccc(F)cc2OC)cc1F` (stereo not shown) [CMLD011573], for which the pEC50 in data set [3] (setting [6]) is 6.30. Also, the CC50 in data set [4] (setting [7]) was determined as 7.9 µM.

For `COc1ccc(N2C(=O)c3[nH]nc(CC(C)C)c3C2c2ncccc2Cl)cc1` (stereo not shown) [CMLD011575], in data set [3] (setting [6]), the pEC50 was 5.00. Moreover, the CC50 in data set [4] (setting [7]) turned out to be 20 µM.

For `COc1ccc(N2C(=O)c3[nH]nc(CC(C)C)c3C2c2cccnc2OC)cc1` (stereo not shown) [CMLD0011576], the pEC50 in data set [3] (setting [6]) was 4.60. Also, in data set [4] (setting [7]), the CC50 was 10 µM.

As for `COc1ccc(N2C(=O)c3[nH]nc(CC(C)C)c3C2c2cnccc2OC)cc1` (stereo not shown) [CMLD011577], the pEC50 in data set [3] (setting [6]) is 5.00. In data set [4] (setting [7]), the cytotoxic concentration (CC50) was determined as 20 µM.

`COc1ccc(N2C(=O)c3[nH]nc(CC(C)C)c3C2c2ncccc2OC)cc1` (stereo not shown) [CMLD011578]: in data set [3] (setting [6]), the pEC50 is under 4.00. Also, in data set [4] (setting [7]), the CC50 stood at 20 µM.

Turning to `COc1ccc(N2C(=O)c3[nH]nc(CC(C)C)c3C2c2cnccc2Cl)cc1` (stereo not shown) [CMLD011579], in data set [3] (setting [6]), the pEC50 is under 4.00. For the same molecule, in data set [4] (setting [7]), the 50% cytotoxic concentration (CC50) is 20 µM.

For `COc1ccc(N2C(=O)c3[nH]nc(CC(C)C)c3C2c2ccccc2Br)cn1` (stereo not shown) [CMLD012218], the CC50 in data set [4] (setting [7]) is over 20 µM. In data set [2], the “L. donovani amastigotes EC75 (B10R cells)” value stood at 0.4 µM and the pEC50 was 6.00.

Turning to `COc1ccc(N2C(=O)c3[nH]nc(CC(C)C)c3C2c2ccc(F)c(F)c2)cc1` (stereo not shown) [CMLD013640], in data set [3] (setting [6]), the pEC50 is 5.30. For the same molecule, the cytotoxic concentration (CC50) in data set [4] (setting [7]) is 25.1 µM.

For the molecule `CCCCc1n[nH]c2c1C(c1ccc(F)cc1)N(c1ccc(OC)cc1)C2=O` (stereo not shown) [Compound 11], the pEC50 in data set [3] (THP-1, read-out: potency (antileishmanial, text to Table 3)) is about 6.52; in data set [3] (growth inhibition of L. donovani intracellular amastigotes infecting THP-1 macrophages, read-out: LD AMMAC EC50), 7.00; in data set [1] (Homo sapiens, THP-1, cytotoxicity against host THP-1 macrophages), 5.60. Also, in data set [5], the PFI was 8.4.

One may read the CC50 as the concentration giving 50% cytotoxicity. A word on the EC50: it is the concentration at which the effect is half-maximal.
